# Data: patent US8226943B2, “Antibodies to notch receptors” (OncoMed Pharmaceuticals, Inc., priority 2008, dated 2012)
# Legend:
# [1] = test system: stroma of Colo205 tumors; assay: Microarray gene expression in stroma of treated xenograft tumors, Colo205; format: in vivo, mice; conditions: 59R1 vs control
# [2] = test system: stroma of B44 tumors; assay: Microarray gene expression in stroma of treated xenograft tumors, B44; format: in vivo, mice; conditions: 59R1 vs control
# Description: Gene expression levels in various xenograft tumor models treated with the 59R1 IgG2 antibody were analyzed by microarray analysis. […] […] Scanned array background adjustment and signal intensity normalization were performed with GCRMA algorithm in the open-source bioconductor software (www.bioconductor.org). The expression level of each gene was normalized by z-score transformation across the samples in the control (CTRL) and treatment (59R1) groups.
# [3] = test system: Colo-205 colon tumors and PE-13 breast tumors; assay: Pimonidazole staining for hypoxic regions in treated tumors; format: in vivo, mice
# Description: Staining for hypoxic regions was performed in Colo-205 colon tumors and PE-13 breast tumors that had been treated either with 59R1 IgG2 antibody or with 1B711 control antibody. The staining was performed as described in Ridgway et al., 2006, Nature 444:1083-1087. Briefly, to measure hypoxia, pimonidazole-hydrochloride (HypoxyProbe, NPI, Burlington, Mass.), which forms long-lived protein adducts at partial pressure of oxygen less than approximately 10 mm Hg, was injected intraperitoneally at 60 mg/kg 1 hr prior to sacrifice. Tumors were then processed for histological analysis, and tumor sections were stained using anti-pimonidazole antibody following manufacturer's protocol (NPI). Photographs were taken using a BX51 microscope (Olympus, Center Valley, Pa.).
# AF594-conjugated goat anti-rat F(ab′)2 was used to detect anti-CD31 antibody and FITC-conjugated goat anti-rabbit antibody was used to detect anti-pimonidazole antibody.
# [4] = biological target: T1, human Notch2 EGF deletion and point mutants (Homo sapiens, UniProt Q04721, A388S/H385N/L389N); assay: FACS epitope mapping with full-length hNotch2 deletion and point mutants; format: binding; conditions: FACS on point mutants
# T1 construct: several point mutants were created within full-length Notch2; expressed in transfected cells; host or cells: HEK-293, transient, co-transfected with GFP
# Description: (§1) Point mutations were made within EGF10 of Notch2 fusion proteins and binding of 59R1 to each EGF10 mutant was determined by FACS analysis. HEK-293 cells were transiently transfected with the indicated Notch expression plasmid and GFP as a transfection control. GFP positive cells indicated expression of the transgene. The 59R1 Fab antibody was added to the cells at 10 μg/ml and detected by PE-conjugated goat anti-human (Jackson Immunochemicals).
# (§2) FACS analysis of HEK-293 cells transiently transfected with the indicated Notch expression plasmid and GFP as a transfection control. GFP positive cells indicate expression of the transgene. Anti-Notch2 (59M70) was added at 20 μg/ml and detected by PE-conjugated goat anti-mouse (Caltag, #3004-4). 59R1 (IgG2) was added to the cells at 2 μg/ml and detected by PE-conjugated goat anti-human Fc gamma specific (Jackson Immunochemicals). Ligand binding was determined by incubation of the cells with human DLL4 extracellular domain (ECD) fused to rabbit IgG constant region at 5 μg/ml and detected by PE-conjugated donkey anti-rabbit.
# (§3) A comparison analysis of the EGF 10 regions of human Notch1, Notch2, and Notch4 and the EGF 9 region of human Notch3 (the equivalent of EGF 10 in the other Notch receptors) was performed to determine likely binding sites for 59R1 (FIG. 14A). […] Binding to the mutants was determined by FACS analysis (FIGS. 14B and 14C). […]
# [5] = biological target: T2, human Notch2 EGF deletion and point mutants (Homo sapiens, UniProt Q04721, DEL375-412); assay: as above; format: binding; conditions: HEK-293 transiently transfected
# T2 construct: several point mutants were created within full-length Notch2; expressed in transfected cells; host or cells: HEK-293, transient, co-transfected with GFP
# Description: as §1, §2, §3
# [6] = test system: colon tumor xenograft line OMP-C8; assay: OMP-C8 colon tumor xenograft growth; format: in vivo, NOD/SCID mice; conditions: established tumors, 15 mg/kg once a week
# Description: The 59R1 IgG2 antibody was also tested in vivo in the breast tumor xenograft lines OMP-B34, OMP-B39, OMP-B44, PE13, and UM-T1, the pancreas tumor xenograft line OMP-PN8, and the colon tumor xenograft line OMP-C8. These tumor xenograft lines were established by adhering to procedures described in Al-Hajj et al., 2003, Proc. Natl. Acad. Sci. USA, 100:3983-3988. Female NOD/SCID immuno-compromised mice 7-10 weeks old were used for the establishment of the breast tumor xenografts and male NOD/SCID mice were used for the OMP-Pn8 and OMP-C8 tumor-models (Harlan, Indianapolis, Ind.). The 59R1 IgG2 antibody was also tested in vivo in a Colo-205 colon tumor xenograft model. Female immunodeficient bg/nu XID mice on a Swiss CD-1 background were used for the Colo-205 xenograft tumor model. In case of the breast cancer models, slow-releasing estrogen pellets (0.36 mg) had to be implanted. Mice were subcutaneously injected on the right flank with 50,000 (OMP-B34, OMP-B39, OMP-B44, PE13, and UM-T1) or 1×10^7 (Colo-205) viable cells, respectively, in a mixture of PBS (without magnesium or calcium) and Matrigel at a 1:1 ratio. […] Antibodies were administered weekly and tumors measured twice weekly. […] Tumor volume was calculated as described Al-Hajj et al. (2003). Data are expressed as the mean and the mean±S.E.M. Group means were compared using Student's two-tailed, unpaired t-test. […]
# T2 sequence (Q04721 with tags, fused parts or gaps DEL375-412): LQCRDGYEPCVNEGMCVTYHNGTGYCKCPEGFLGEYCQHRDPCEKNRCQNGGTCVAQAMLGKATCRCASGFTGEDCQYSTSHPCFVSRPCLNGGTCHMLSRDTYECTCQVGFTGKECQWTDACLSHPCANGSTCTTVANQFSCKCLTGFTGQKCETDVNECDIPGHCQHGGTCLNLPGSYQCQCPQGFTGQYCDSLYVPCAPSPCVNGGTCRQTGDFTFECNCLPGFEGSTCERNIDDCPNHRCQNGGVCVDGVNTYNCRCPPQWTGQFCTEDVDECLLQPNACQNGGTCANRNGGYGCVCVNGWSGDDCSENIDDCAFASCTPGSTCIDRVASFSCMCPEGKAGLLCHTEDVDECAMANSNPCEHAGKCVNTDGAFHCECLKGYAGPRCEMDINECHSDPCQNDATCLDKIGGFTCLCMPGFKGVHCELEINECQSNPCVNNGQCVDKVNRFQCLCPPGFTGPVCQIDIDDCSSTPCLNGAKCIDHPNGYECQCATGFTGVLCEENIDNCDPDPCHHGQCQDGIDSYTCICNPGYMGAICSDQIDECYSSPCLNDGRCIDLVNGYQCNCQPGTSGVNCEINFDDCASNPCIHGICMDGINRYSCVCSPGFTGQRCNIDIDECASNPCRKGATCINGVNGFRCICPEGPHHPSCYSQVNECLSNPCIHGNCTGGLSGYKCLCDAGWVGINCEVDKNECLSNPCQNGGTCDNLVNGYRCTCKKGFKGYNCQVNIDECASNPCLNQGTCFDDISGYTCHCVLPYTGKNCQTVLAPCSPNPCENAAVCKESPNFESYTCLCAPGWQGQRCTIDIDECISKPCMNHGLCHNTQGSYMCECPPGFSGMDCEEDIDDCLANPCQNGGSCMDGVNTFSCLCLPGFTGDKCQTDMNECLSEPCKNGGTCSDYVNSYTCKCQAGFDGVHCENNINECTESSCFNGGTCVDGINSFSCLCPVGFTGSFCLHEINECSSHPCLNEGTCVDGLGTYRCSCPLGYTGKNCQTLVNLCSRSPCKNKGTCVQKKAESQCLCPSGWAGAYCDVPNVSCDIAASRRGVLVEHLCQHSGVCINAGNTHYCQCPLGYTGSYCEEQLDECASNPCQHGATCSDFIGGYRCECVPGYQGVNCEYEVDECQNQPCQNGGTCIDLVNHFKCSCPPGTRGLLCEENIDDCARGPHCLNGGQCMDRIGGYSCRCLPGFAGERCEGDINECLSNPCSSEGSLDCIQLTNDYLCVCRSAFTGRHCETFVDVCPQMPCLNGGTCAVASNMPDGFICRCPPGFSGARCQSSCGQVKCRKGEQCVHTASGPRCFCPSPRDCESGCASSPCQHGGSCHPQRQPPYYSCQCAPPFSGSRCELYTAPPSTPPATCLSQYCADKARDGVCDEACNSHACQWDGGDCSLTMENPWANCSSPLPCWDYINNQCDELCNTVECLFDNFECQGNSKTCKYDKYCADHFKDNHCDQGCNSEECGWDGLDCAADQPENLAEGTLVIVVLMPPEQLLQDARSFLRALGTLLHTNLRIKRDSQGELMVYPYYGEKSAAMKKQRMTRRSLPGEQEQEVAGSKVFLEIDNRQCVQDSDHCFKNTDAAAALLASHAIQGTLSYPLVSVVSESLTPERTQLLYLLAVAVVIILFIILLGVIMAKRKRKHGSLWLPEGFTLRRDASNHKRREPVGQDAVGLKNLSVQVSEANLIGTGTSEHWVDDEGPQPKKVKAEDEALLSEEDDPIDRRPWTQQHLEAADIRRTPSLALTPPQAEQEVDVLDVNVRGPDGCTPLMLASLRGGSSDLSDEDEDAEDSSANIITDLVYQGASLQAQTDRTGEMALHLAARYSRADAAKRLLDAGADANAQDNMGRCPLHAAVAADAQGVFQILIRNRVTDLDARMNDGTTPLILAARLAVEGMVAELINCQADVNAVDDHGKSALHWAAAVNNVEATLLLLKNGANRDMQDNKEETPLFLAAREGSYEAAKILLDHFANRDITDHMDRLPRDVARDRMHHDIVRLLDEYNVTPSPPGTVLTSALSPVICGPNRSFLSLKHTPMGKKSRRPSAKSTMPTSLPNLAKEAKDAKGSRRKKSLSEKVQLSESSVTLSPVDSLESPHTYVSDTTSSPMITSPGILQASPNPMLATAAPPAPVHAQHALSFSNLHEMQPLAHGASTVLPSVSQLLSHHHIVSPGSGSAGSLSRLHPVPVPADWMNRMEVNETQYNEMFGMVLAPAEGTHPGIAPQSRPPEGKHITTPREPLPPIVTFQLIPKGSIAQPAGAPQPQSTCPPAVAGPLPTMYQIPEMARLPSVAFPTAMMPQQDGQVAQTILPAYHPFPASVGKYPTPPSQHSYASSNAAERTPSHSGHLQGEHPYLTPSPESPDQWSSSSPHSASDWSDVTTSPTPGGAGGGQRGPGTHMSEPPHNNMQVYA
# T1 sequence (Q04721 26-2471 H385N/A388S/L389N): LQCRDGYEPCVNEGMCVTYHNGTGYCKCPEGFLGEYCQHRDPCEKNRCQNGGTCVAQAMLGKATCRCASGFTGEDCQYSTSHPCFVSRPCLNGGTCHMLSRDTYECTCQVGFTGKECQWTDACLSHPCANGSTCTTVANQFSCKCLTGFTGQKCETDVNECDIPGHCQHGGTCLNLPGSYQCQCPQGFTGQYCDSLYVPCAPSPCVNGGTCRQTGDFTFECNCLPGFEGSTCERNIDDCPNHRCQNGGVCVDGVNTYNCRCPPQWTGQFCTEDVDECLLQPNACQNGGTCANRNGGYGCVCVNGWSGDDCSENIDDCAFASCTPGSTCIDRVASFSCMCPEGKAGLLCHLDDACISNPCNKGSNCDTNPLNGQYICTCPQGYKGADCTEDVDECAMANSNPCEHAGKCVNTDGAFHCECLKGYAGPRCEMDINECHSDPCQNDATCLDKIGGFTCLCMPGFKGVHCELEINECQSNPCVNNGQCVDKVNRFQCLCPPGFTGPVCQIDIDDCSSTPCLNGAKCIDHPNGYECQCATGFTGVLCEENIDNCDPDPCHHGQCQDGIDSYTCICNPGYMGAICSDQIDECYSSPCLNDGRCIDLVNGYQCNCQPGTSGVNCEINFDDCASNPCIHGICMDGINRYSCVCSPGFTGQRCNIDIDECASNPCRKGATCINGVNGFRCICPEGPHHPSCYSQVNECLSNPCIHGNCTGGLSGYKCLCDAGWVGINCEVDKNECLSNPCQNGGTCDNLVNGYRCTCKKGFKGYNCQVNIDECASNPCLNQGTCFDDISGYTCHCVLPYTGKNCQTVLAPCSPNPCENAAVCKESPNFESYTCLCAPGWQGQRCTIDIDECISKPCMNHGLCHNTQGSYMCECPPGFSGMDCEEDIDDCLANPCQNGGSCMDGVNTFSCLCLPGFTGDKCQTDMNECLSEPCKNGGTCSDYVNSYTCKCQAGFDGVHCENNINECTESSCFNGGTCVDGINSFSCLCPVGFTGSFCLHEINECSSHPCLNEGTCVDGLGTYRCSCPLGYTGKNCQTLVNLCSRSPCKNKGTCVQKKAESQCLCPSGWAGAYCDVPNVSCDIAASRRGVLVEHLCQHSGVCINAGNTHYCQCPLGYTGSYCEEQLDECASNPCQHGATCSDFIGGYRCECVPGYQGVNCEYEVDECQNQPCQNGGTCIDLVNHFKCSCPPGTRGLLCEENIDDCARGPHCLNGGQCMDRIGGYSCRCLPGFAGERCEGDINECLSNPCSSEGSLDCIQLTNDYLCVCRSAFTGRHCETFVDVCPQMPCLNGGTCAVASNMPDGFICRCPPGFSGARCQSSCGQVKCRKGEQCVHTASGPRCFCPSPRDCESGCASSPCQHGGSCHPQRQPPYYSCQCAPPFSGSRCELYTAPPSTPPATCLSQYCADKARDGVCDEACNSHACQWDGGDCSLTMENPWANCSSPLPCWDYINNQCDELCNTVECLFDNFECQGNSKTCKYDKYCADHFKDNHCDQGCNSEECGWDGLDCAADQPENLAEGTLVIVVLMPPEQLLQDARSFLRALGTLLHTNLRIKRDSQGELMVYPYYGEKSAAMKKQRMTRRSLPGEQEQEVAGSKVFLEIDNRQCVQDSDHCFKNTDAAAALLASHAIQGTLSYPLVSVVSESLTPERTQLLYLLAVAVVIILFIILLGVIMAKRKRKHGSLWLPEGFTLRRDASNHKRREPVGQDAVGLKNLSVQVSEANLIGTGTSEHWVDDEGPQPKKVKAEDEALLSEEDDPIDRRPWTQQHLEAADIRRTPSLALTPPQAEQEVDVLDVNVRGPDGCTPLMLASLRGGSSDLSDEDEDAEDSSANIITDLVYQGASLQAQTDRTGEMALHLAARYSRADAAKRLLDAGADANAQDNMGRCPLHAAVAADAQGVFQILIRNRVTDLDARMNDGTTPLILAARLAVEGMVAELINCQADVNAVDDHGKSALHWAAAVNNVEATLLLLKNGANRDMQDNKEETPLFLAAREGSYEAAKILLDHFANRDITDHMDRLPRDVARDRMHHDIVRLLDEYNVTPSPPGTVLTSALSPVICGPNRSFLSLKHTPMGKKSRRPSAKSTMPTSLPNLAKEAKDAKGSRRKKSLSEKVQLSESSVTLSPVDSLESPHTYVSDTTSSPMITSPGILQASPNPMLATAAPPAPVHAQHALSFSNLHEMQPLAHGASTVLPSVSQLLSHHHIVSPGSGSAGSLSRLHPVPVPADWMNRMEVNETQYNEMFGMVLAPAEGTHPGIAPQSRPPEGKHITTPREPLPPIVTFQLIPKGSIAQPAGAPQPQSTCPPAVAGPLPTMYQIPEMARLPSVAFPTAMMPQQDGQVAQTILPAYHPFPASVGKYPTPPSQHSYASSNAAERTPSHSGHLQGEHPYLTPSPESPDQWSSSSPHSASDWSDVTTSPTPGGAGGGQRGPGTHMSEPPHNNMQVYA
substance,measurement,setting,value
59R1: human IgG2 antibody binding Notch2 and Notch3; heavy and light chain SEQ ID NO:16 and 18; ATCC PTA-9547,Fold 1416286_at (Rgs4),[1],−3.08
same,Fold 1418829_a_at (Eno2),[1],1.79
same,Fold 1419302_at (Heyl),[1],−3.28
same,Fold 1420941_at (Rgs5),[1],−5.10
same,Fold 1422789_at (Aldh1a2),[1],−1.73
same,Fold 1428361_x_at (Hba-al/Hba-a2),[1],−8.91
same,Fold 1449280_at (Esm1),[1],2.07
same,Fold 1449632_s_at (Fkbp10),[1],−1.72
same,Fold 1459713_s_at (Tmem16a),[1],−1.90
same,Fold 1416286_at (Rgs4),[2],−1.57
same,Fold 1417466_at (Rgs5),[2],−2.22
same,Fold 1417714_x_at (Hba-al/Hba-a2),[2],−2.56
same,Fold 1418829_a_at (Eno2),[2],1.71
same,Fold 1419302_at (Heyl),[2],−1.12
same,Fold 1420872_at (Gucy1b3),[2],−1.65
same,Fold 1420941_at (Rgs5),[2],−2.09
same,Fold 1420942_s_at (Rgs5),[2],−2.43
same,Fold 1421964_at (Notch3),[2],−2.03
same,Fold 1422789_at (Aldh1a2),[2],−4.92
same,Fold 1428361_x_at (Hba-al/Hba-a2),[2],−2.42
same,Fold 1434141_at (Gucy1a3),[2],−1.74
same,Fold 1449280_at (Esm1),[2],1.55
same,Fold 1449632_s_at (Fkbp10),[2],−1.57
same,Fold 1451501_a_at (Ghr),[2],−2.24
same,Fold 1452590_a_at (Plac9),[2],−1.64
same,Fold 1459713_s_at (Tmem16a),[2],−1.70
same,hypoxic regions (anti-pimonidazole antibody) versus 1B711 treated tumors,[3]; Colo-205 and PE13 tumors,significantly more pronounced
same,number of CD31-positive cells,[3]; treated tumors versus 1B711,remained unchanged
same,amino acids necessary for binding to hNotch 2,[4],"histidine 385, alanine 388, and leucine 389"
same,FACS binding to hNotch2 in the absence of EGF 10 (missing amino acids 375-412),[5],does not
same,C8 tumor growth relative to LZ1 control antibody,[6],inhibit tumor growth
